Measured values taken from paper PMC7738880, “Identification of novel CD44v6-binding peptides that block CD44v6 and deliver a pro-apoptotic peptide to tumors to inhibit tumor growth and metastasis in mice” (Theranostics, 2021).
Residues, ends and D or L forms follow the SMILES beside them.

Experiments:
MCF7 cells = experiment: Saturation cell binding assay, MCF7; design: species or system human; details: biotin-labeled peptide 0-256 µM, 4 °C, 1 h, CD44v6-low cells
Description: (§1) Supplementary Information
(§2) Supplementary Materials and Methods
(§3) Saturation binding assays to determine the cellular binding affinities of peptides Cells (5 × 10^3 cells per well in a 96-well plate) were incubated with 1% bovine serum albumin (BSA) for 30 min and with different concentrations of biotin-labeled peptides (0, 2, 4, 8, 16, 32, 64, 128, and 256 µM) at 4 °C for 1 h. After washing, the cells were incubated with horseradish peroxidase-conjugated neutravidin (1:10,000 dilution; ThermoFisher Scientific, Waltham, MA) for 30 min at room temperature. Enzymatic activity was detected using a 3,3ʹ,5,5ʹ-tetramethylbenzidine substrate (ThermoFisher Scientific), and the reaction was stopped using 2 M sulfuric acid. The absorbance at 450 nm was measured in each well using a microplate reader (Tecan, Mannedorf, Switzerland). The KD values were then calculated using GraphPad Prism 6 software (GraphPad Inc., La Jolla, CA). […]
(§4) 10 µM biotin-labeled CD44v6-binding peptides at 4 °C for 1 h. […]
(§5) Scientific) for 30 min at room temperature. […]

4T1-luc cells = experiment: 4T1-luc orthotopic spontaneous metastasis model; format: in vivo; details: for tumor growth, lung metastasis, survival rate and TUNEL-stained apoptosis, peptide combined with crizotinib 12.5 mg/kg: peptide 14.2 mg/kg i.v. plus crizotinib 12.5 mg/kg oral, versus crizotinib alone 25 mg/kg; for primary tumor growth, lung metastasis and survival, peptide combined with crizotinib 25 mg/kg: peptide 14.2 mg/kg i.v. plus crizotinib 25 mg/kg oral, versus single treatment; for luminescence signals and total photon flux from the whole body: n = 6/group; for number of lung tumor nodules: relative to saline and control peptide; for hematologic parameters and liver and kidney functional marker levels: peptide alone or in combination with crizotinib, compared with control peptide, n = 3/group
Description: 4T1-luc cells (1 × 10^6 cells) were orthotopically inoculated into the mammary fat pads in 6-week-old female BALB/c mice. Panc-1 cells (1 × 10^6 cells) were subcutaneously inoculated into lower right flank in 6-week-old female BALB/c nude mice To monitor 4T1-luc tumor growth, mice were intraperitoneally injected with D-luciferin (150 mg/kg body weight), incubated for 10 min, and subjected to a whole-body bioluminescence imaging using the IVIS imaging system (Perkin Elmer). At two weeks after the inoculation, mice were randomly sorted into groups based on the luminescence intensity (4T1-luc) or tumor size (Panc-1). CD44v6-binding peptides were administered intravenously to 4T1 tumor-bearing mice (n = 6 per group) through the tail vein (14.2 mg/kg body weight, thrice weekly for three weeks) alone or in combination with crizotinib. Crizotinib in 5% DMSO was administered orally (12.5 and 25 mg/kg body weight, twice weekly for three weeks). CD44v6-targeted pro-apoptotic peptides or CD44v6-binding peptides and pro-apoptotic peptide in combination were intravenously administered to 4T1 or Panc-1 tumor-bearing mice (n = 10 per group) through the tail vein (10 mg/kg body weight, thrice weekly for 3 weeks). Primary tumor growth was monitored by measuring tumor volumes using a caliper and total photon flux in the whole body using the IVIS imaging system. The body weights and tumor ulceration were monitored throughout the treatment period. At the end of the treatments, half of the mice were used for the collection of blood, sacrificed, and the primary tumor weights and numbers of metastatic tumor nodules in the isolated lungs were determined. The remaining mice were maintained until death to determine the survival rates. The hematological parameters and liver and kidney function markers in plasma and serum samples were analyzed as described above. The normal ranges of hematological parameters of the BALB/c mouse and BALB/c nude mouse were obtained from Charles River Laboratories website (www.criver.com).

[1] = target: T1, CD44v6 from MDA-MB231 cell lysates (Homo sapiens, UniProt P16070); experiment: Pull-down assay with biotin-labeled peptides; format: binding; details: biotinylated peptide 25 µM, streptavidin beads, immunoblotting
T1 sequence (P16070 386-428 limits assumed): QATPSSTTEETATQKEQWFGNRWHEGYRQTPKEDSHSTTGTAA
Description: Biotin-labeled peptides were incubated with streptavidin magnetic beads (Bioclone Inc., San Diego, CA) at room temperature for 30-60 min under gentle rotation. MDA-MB231 cells were then lysed using a cell lysis reagent (ThermoFisher Scientific) containing protease inhibitors. The lysates were incubated with the biotinylated peptide (25 µM) and streptavidin bead complexes at room temperature for 30-60 min under gentle rotation. In another set of assays, the recombinant human CD44v6 protein was used instead of the cell lysates. The complexes were pulled down and incubated with an elution buffer containing 2 mM D-biotin (Bioclone Inc.) for 5-10 min, and the eluates were collected and subjected to electrophoresis.

[2] = target: T2, recombinant human CD44-Fc protein (Homo sapiens, UniProt P16070); experiment: SPR analysis of peptide binding to CD44-Fc; details: biotin-conjugated peptide on streptavidin chip, CD44-Fc 0.125-2 µM
T2 construct: Fc; purchased R&D Systems
T2 sequence (P16070 21-361 isoform P16070-12 limits assumed): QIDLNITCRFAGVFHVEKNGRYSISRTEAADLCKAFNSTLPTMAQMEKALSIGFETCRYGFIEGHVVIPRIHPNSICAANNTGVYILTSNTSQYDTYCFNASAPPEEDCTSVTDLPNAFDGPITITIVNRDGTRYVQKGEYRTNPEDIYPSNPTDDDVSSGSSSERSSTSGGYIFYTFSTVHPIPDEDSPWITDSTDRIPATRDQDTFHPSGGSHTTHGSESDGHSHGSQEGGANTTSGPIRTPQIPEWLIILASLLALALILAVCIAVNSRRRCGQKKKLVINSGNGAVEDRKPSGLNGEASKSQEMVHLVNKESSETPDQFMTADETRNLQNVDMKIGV
Description: The binding affinity (KD) of CD44v6-binding peptides to the CD44v6 protein was measured using an SPR instrument (Reichert Technologies, Depew, NY). A streptavidin chip was used as the immobilization substrate and exposed to biotin-labeled peptides (25 μΜ) at 5 μL/min for 50 min. The streptavidin only surface was used for the reference surface. All SPR signals were corrected by subtraction with the response of the reference surface. After washing, the chip was flowed with a solution of CD44v6-Fc or CD44-Fc protein (R&D Systems, Minneapolis, MN) in binding buffer (137 mM NaCl, 10 mM phosphate, 2.7 mM KCl pH 7.4, 62.5 µM BSA, and 0.005% Tween-20) at concentrations of 0.125, 0.25, 0.5, 1, and 2 μM at 10 μL/min for 3 min. Five concentrations (0.125, 0.25, 0.5, 1, and 2 µM) of CD44v6-Fc and CD44-Fc were used in a single-cycle dynamic SPR measurements. Resonance units were recorded and analyzed using Scrubber 2.0 software (BioLogic Software, Campbell, Australia). KD values were calculated by analyzing the steady-state binding data by fitting the curve of binding level against concentration with a 1:1 binding model (GraphPad Prism 7.0 software).

4T1 cells = experiment: Saturation cell binding assay, 4T1; design: species or system mouse; details: biotin-labeled peptide 0-256 µM, 4 °C, 1 h
Description: as §1, §2, §3, §4, §5

[3] = peptide 14.2 mg/kg i.v. thrice weekly for three weeks

Row | SMILES | Kd (MCF7 cells) | tumor growth, lung metastasis, survival rate and TUNEL-stained apoptosis, peptide combined with crizotinib 12.5 mg/kg (4T1-luc cells) | primary tumor growth, lung metastasis and survival, peptide combined with crizotinib 25 mg/kg (4T1-luc cells) | body weight (4T1-luc cells; [3]) | survival rate (4T1-luc cells; [3]) | volumes of primary tumors (4T1-luc cells; [3]) | weights of isolated primary tumors (4T1-luc cells; [3]) | luminescence signals and total photon flux from the whole body (4T1-luc cells; [3]) | number of lung tumor nodules (4T1-luc cells; [3]) | hematologic parameters and liver and kidney functional marker levels (4T1-luc cells) | pull-down of CD44v6 and CD44 from cell lysates [1] | pull-down of c-Met together with CD44v6 from cell lysates [1] | binding to the CD44 protein [2] | Kd (4T1 cells) | monocyte population (4T1-luc cells; [3])
1 | CC(C)C[C@H](NC(=O)[C@H](CCC(N)=O)NC(=O)[C@H](Cc1c[nH]c2ccccc12)NC(=O)[C@H](CCC(=O)O)NC(=O)[C@H](CC(N)=O)NC(=O)[C@@H](N)CS)C(=O)N[C@@H](CCCCN)C(=O)N[C@@H](CO)C(=O)N[C@@H](CS)C(=O)O [NEW] (H-CNEWQLKSC-OH; N-terminus and C-terminus assumed) | 122 ± 115 µM | more efficiently than crizotinib alone | more efficiently than a single treatment | little effect | increased | decreased | decreased | decreased | reduced number | not significantly changed or remained within normal ranges | selectively pulled down CD44v6 but not CD44 | pulled down only CD44v6 | did not bind | 29 ± 16 µM | –
2 | CC[C@H](C)[C@H](NC(=O)[C@@H](NC(=O)[C@H](CC(N)=O)NC(=O)[C@H](CC(C)C)NC(=O)[C@H](CC(N)=O)NC(=O)[C@@H](N)CS)[C@@H](C)O)C(=O)N[C@@H](CC(=O)O)C(=O)N[C@H](C(=O)N[C@@H](CS)C(=O)O)[C@@H](C)O [NLN] (H-CNLNTIDTC-OH; N-terminus and C-terminus assumed) | 300 ± 250 µM | more efficiently than crizotinib alone | more efficiently than a single treatment | little effect | increased | decreased | decreased | decreased | reduced number | not significantly changed or remained within normal ranges | selectively pulled down CD44v6 but not CD44 | pulled down both c-Met and CD44v6 | did not bind | 17 ± 7 µM | decreased below the normal ranges
